{
  "source": "patent US20150010928A1",
  "about": "“MEANS AND METHODS FOR ASSESSING AN ENDOCRINE DISEASE OR DISORDER” (priority 2012, published 2015)",
  "test_system": "male rats",
  "test": "Plasma metabolite profiling (GC-MS, LC-MS, SPE-LC-MS) in male rats dosed once daily over 28 days (OECD 407)",
  "type": "in vivo, rat",
  "conditions": "high dose; for Mannose: Table 15c",
  "method_in_brief": "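Polar and lipid fractions profiled by GC-MS and LC-MS/MRM, steroids by online SPE-LC-MS; pool-normalized data compared to controls by Welch test as treatment ratios and p-values.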",
  "note": "Marks after values point to notes of the source that are not given here.",
  "data": [
    {"molecule": "C[C@]12CCC(=O)C=C1CC[C@@H]1[C@@H]2CC[C@@]2(C)[C@H]1CC[C@]2(C)O", "note": "[17-alpha-Methyltestosterone]", "values": [
      {"measurement": "Mannose", "setting": "m7, male rats", "result": "1.14 *"},
      {"measurement": "3,4-Dihydroxyphenylacetic acid (DOPAC)", "setting": "m7, male rats, Table 15d", "result": "0.6 *"},
      {"measurement": "18-Hydroxy-11-deoxycorticosterone", "setting": "m7, male rats, Table 15d", "result": "0.35 *"},
      {"measurement": "Glycerol phosphate, lipid fraction", "setting": "m7, male rats, Table 15d", "result": "0.28 *"},
      {"measurement": "Homovanillic acid (HVA)", "setting": "m7, male rats, Table 15d", "result": "0.74 *"},
      {"measurement": "Lysophosphatidylcholine (C18:1)", "setting": "m7, male rats, Table 15d", "result": "0.66 *"},
      {"measurement": "Lysophosphatidylethanolamine (C22:5)", "setting": "m7, male rats, Table 15d", "result": "0.77 *"},
      {"measurement": "Phosphate, lipid fraction", "setting": "m7, male rats, Table 15d", "result": "0.51 *"},
      {"measurement": "Phosphatidylcholine (C18:0,C18:1)", "setting": "m7, male rats, Table 15d", "result": 0.78},
      {"measurement": "Sphingomyelin (d18:1, C16:0)", "setting": "m7, male rats, Table 15d", "result": "0.34 *"},
      {"measurement": "Sphingomyelin (d18:1,C23:0)", "setting": "m7, male rats, Table 15d", "result": "0.49 *"},
      {"measurement": "Sphingomyelin (d18:1,C24:0)", "setting": "m7, male rats, Table 15d", "result": "0.46 *"},
      {"measurement": "Sphingomyelin (d18:2,C18:0)", "setting": "m7, male rats, Table 15d", "result": 0.4},
      {"measurement": "TAG No 02", "setting": "m7, male rats, Table 15d", "result": "0.41 *"},
      {"measurement": "myo-Inositol, lipid fraction", "setting": "m7, male rats, Table 15d", "result": "0.4 *"},
      {"measurement": "Cholesterol", "setting": "m7, Table 14b", "result": 0.29},
      {"measurement": "Choline plasmalogen No 02", "setting": "m7, Table 14b", "result": 0.55},
      {"measurement": "Lignoceric acid (C24:0)", "setting": "m7, Table 14b", "result": 0.28},
      {"measurement": "Sphingomyelin (d18:1, C16:0)", "setting": "m7, Table 14b", "result": 0.34},
      {"measurement": "Sphingomyelin (d18:2, C16:0)", "setting": "m7, Table 14b", "result": 0.39},
      {"measurement": "erythro-Sphingosine (d18:1)", "setting": "m7, Table 14b", "result": 0.17},
      {"measurement": "Mannose", "setting": "m14, male rats", "result": 1.03},
      {"measurement": "3,4-Dihydroxyphenylacetic acid (DOPAC)", "setting": "m14, male rats, Table 15d", "result": "0.69 *"},
      {"measurement": "18-Hydroxy-11-deoxycorticosterone", "setting": "m14, male rats, Table 15d", "result": 0.94},
      {"measurement": "Glycerol phosphate, lipid fraction", "setting": "m14, male rats, Table 15d", "result": "0.63 *"},
      {"measurement": "Homovanillic acid (HVA)", "setting": "m14, male rats, Table 15d", "result": "0.68 *"},
      {"measurement": "Lysophosphatidylcholine (C18:1)", "setting": "m14, male rats, Table 15d", "result": "0.78 *"},
      {"measurement": "Lysophosphatidylethanolamine (C22:5)", "setting": "m14, male rats, Table 15d", "result": "0.88 *"},
      {"measurement": "Phosphate, lipid fraction", "setting": "m14, male rats, Table 15d", "result": "0.64 *"},
      {"measurement": "Phosphatidylcholine (C18:0,C18:1)", "setting": "m14, male rats, Table 15d", "result": "0.69 *"},
      {"measurement": "Sphingomyelin (d18:1, C16:0)", "setting": "m14, male rats, Table 15d", "result": "0.28 *"},
      {"measurement": "Sphingomyelin (d18:1,C23:0)", "setting": "m14, male rats, Table 15d", "result": 0.76},
      {"measurement": "Sphingomyelin (d18:1,C24:0)", "setting": "m14, male rats, Table 15d", "result": "0.47 *"},
      {"measurement": "Sphingomyelin (d18:2,C18:0)", "setting": "m14, male rats, Table 15d", "result": "0.31 *"},
      {"measurement": "TAG No 02", "setting": "m14, male rats, Table 15d", "result": "0.3 *"},
      {"measurement": "myo-Inositol, lipid fraction", "setting": "m14, male rats, Table 15d", "result": "0.49 *"},
      {"measurement": "Cholesterol", "setting": "m14, Table 14b", "result": 0.41},
      {"measurement": "Choline plasmalogen No 02", "setting": "m14, Table 14b", "result": 0.64},
      {"measurement": "Lignoceric acid (C24:0)", "setting": "m14, Table 14b", "result": 0.39},
      {"measurement": "Sphingomyelin (d18:1, C16:0)", "setting": "m14, Table 14b", "result": 0.28},
      {"measurement": "Sphingomyelin (d18:2, C16:0)", "setting": "m14, Table 14b", "result": 0.38},
      {"measurement": "erythro-Sphingosine (d18:1)", "setting": "m14, Table 14b", "result": 0.21},
      {"measurement": "Mannose", "setting": "m28, male rats", "result": "1.2 *"},
      {"measurement": "3,4-Dihydroxyphenylacetic acid (DOPAC)", "setting": "m28, male rats, Table 15d", "result": 0.74},
      {"measurement": "18-Hydroxy-11-deoxycorticosterone", "setting": "m28, male rats, Table 15d", "result": "0.55 *"},
      {"measurement": "Glycerol phosphate, lipid fraction", "setting": "m28, male rats, Table 15d", "result": "0.47 *"},
      {"measurement": "Homovanillic acid (HVA)", "setting": "m28, male rats, Table 15d", "result": 0.92},
      {"measurement": "Lysophosphatidylcholine (C18:1)", "setting": "m28, male rats, Table 15d", "result": "0.73 *"},
      {"measurement": "Lysophosphatidylethanolamine (C22:5)", "setting": "m28, male rats, Table 15d", "result": "0.77 *"},
      {"measurement": "Phosphate, lipid fraction", "setting": "m28, male rats, Table 15d", "result": "0.6 *"},
      {"measurement": "Phosphatidylcholine (C18:0,C18:1)", "setting": "m28, male rats, Table 15d", "result": "0.7 *"},
      {"measurement": "Sphingomyelin (d18:1, C16:0)", "setting": "m28, male rats, Table 15d", "result": "0.27 *"},
      {"measurement": "Sphingomyelin (d18:1,C23:0)", "setting": "m28, male rats, Table 15d", "result": "0.48 *"},
      {"measurement": "Sphingomyelin (d18:1,C24:0)", "setting": "m28, male rats, Table 15d", "result": "0.44 *"},
      {"measurement": "Sphingomyelin (d18:2,C18:0)", "setting": "m28, male rats, Table 15d", "result": "0.36 *"},
      {"measurement": "TAG No 02", "setting": "m28, male rats, Table 15d", "result": "0.34 *"},
      {"measurement": "myo-Inositol, lipid fraction", "setting": "m28, male rats, Table 15d", "result": "0.51 *"},
      {"measurement": "Cholesterol", "setting": "m28, Table 14b", "result": 0.39},
      {"measurement": "Choline plasmalogen No 02", "setting": "m28, Table 14b", "result": 0.49},
      {"measurement": "Lignoceric acid (C24:0)", "setting": "m28, Table 14b", "result": 0.19},
      {"measurement": "Sphingomyelin (d18:1, C16:0)", "setting": "m28, Table 14b", "result": 0.27},
      {"measurement": "Sphingomyelin (d18:2, C16:0)", "setting": "m28, Table 14b", "result": 0.37},
      {"measurement": "erythro-Sphingosine (d18:1)", "setting": "m28, Table 14b", "result": 0.19}
    ]}
  ]
}
